One compound from patent US20120283428A1, “HYALURONIC ACID DERIVATIVE EFFECTIVE AGAINST ATOPIC DERMATITIS, AND METHOD FOR MANUFACTURING SAME” (CELLINBIO CO.,LTD, priority 2009, published 2012) can be followed below.

The structures appear in SMILES notation.

For the assay, the system named is PGE2. Description: PGE2 level in LPS-stimulated macrophage cell-line, ELISA. In kind it is cell-based, mouse. As to conditions: RAW 264.7, 500 ng/ml LPS, 10 mg/ml test substance, 24 hours, compared to control (FIG. 2). The protocol: As a positive control, ascorbic acid (AA) and a mixture of hyaluronic acid and ascorbic acid (HA+AA) was used in this Example. PGE2 is a substance causing inflammation, edema, pain and fever in body. Microphage cell-line (RAW 264.7) was inoculated into medium containing DMEM (Dulbecco's modified Eagle's medium)/FBS (Fetal Bovine Serum) under a condition of […] of CO2 concentration at a temperature of 37° C. in order to culture the cell-line. […] The complete medium was cultured additionally for 24 hours, and then PGE2 level in supernatant of medium was assayed by ELISA (enzyme-linked Immunosorbent Assay) analysis. […] Each well was washed, and then substrate solution was added.

With `O=C1O[C@H]([C@@H](O)CO)C(O)=C1O` [AA, ascorbic acid], the “PGE2 level in supernatant of medium” value is given as “decrease PGE2 significantly”.
